From PMC12114444, “Biochemical Characterization and Polyester-Binding/Degrading Capability of Two Cutinases from Aspergillus fumigatus” (Microorganisms, 2025)

Tested on: AfCutB
Conditions: 30 °C, 5 min; standard assay 0.05 M Tris-HCl pH 8.5 (results text: optimal conditions, optimum pH 9.0)

With `CCCC(=O)Oc1ccc([N+](=O)[O-])cc1` [p-nitrophenyl butyrate] the Km was 6.29 mM.
